Data published in publication PMC6264117, “Label-Free Time-Gated Luminescent Detection Method for the Nucleotides with Varying Phosphate Content” (Sensors (Basel, Switzerland), 2018).

Target: T1, K-Ras (Homo sapiens, UniProt P01116)
T1 construct: gene KRAS; res; 2-188; with SOS^cat (res. 564-1049); p120GAP (res. 714-1047) in the cycling assay
Assay: Label-free Tb(III) luminescence GTPase cycling assay (Probe […]); confirmed by QRET and by SOS^cat nucleotide exchange assays (IC50 […])
Assay type: biochemical

T1 sequence (Q07889 564-1049): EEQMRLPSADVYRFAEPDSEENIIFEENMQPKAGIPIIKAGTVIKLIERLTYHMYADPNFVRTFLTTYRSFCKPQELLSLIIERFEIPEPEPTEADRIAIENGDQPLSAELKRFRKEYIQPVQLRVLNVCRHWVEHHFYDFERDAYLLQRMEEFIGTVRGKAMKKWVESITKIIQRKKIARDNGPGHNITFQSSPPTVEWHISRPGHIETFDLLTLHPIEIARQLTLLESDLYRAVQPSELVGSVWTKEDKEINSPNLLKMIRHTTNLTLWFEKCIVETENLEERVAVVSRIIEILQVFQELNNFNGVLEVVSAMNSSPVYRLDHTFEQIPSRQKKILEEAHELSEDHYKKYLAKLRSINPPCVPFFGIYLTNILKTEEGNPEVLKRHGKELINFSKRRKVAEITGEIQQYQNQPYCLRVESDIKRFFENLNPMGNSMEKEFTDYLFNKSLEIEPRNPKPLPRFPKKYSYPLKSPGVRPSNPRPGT
T1 sequence (P20936 714-1047, further chain): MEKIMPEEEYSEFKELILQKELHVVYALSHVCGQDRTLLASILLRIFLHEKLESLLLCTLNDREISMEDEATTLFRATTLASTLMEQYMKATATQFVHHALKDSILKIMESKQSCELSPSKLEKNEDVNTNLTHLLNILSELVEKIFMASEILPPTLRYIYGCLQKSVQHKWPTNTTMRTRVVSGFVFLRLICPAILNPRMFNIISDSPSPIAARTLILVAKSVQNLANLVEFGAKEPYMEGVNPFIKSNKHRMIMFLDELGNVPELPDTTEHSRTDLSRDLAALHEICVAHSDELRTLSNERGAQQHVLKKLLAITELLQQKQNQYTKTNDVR
T1 sequence (P01116 2-188): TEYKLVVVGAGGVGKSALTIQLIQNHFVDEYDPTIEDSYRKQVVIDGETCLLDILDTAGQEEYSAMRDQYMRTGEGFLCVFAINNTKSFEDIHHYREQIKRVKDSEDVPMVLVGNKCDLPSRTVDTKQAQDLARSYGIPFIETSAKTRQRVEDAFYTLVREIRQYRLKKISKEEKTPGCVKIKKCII

Compound: Cc1[nH]c2cc(Cl)cc(Cl)c2c1CCN [DCAI, 2-(4,6-dichloro-2-methyl-1h-indol-3-yl)ethanamine]
- IC50: 158 ± 13 µM
